In series [1] the target is ALK tyrosine kinase receptor (Homo sapiens, UniProt Q9UM73, L1196M). Description: Inhibition of ALK L1196M mutant (unknown origin).
The nature of series [2]: Lipophilicity, log D of the compound. In kind it is physicochemical. The following applies: octanol/water.
The target of series [3] is Aldo-keto reductase family 1 member B1 (Homo sapiens, UniProt P15121). Description: Inhibition of human ALR2.

The text below walks through data of ChEMBL document CHEMBL4118113, “Lipophilic Efficiency as an Important Metric in Drug Design” (J Med Chem, 2018).

Sequence of ALK tyrosine kinase receptor (Q9UM73 19-1620 L1196M limits assumed): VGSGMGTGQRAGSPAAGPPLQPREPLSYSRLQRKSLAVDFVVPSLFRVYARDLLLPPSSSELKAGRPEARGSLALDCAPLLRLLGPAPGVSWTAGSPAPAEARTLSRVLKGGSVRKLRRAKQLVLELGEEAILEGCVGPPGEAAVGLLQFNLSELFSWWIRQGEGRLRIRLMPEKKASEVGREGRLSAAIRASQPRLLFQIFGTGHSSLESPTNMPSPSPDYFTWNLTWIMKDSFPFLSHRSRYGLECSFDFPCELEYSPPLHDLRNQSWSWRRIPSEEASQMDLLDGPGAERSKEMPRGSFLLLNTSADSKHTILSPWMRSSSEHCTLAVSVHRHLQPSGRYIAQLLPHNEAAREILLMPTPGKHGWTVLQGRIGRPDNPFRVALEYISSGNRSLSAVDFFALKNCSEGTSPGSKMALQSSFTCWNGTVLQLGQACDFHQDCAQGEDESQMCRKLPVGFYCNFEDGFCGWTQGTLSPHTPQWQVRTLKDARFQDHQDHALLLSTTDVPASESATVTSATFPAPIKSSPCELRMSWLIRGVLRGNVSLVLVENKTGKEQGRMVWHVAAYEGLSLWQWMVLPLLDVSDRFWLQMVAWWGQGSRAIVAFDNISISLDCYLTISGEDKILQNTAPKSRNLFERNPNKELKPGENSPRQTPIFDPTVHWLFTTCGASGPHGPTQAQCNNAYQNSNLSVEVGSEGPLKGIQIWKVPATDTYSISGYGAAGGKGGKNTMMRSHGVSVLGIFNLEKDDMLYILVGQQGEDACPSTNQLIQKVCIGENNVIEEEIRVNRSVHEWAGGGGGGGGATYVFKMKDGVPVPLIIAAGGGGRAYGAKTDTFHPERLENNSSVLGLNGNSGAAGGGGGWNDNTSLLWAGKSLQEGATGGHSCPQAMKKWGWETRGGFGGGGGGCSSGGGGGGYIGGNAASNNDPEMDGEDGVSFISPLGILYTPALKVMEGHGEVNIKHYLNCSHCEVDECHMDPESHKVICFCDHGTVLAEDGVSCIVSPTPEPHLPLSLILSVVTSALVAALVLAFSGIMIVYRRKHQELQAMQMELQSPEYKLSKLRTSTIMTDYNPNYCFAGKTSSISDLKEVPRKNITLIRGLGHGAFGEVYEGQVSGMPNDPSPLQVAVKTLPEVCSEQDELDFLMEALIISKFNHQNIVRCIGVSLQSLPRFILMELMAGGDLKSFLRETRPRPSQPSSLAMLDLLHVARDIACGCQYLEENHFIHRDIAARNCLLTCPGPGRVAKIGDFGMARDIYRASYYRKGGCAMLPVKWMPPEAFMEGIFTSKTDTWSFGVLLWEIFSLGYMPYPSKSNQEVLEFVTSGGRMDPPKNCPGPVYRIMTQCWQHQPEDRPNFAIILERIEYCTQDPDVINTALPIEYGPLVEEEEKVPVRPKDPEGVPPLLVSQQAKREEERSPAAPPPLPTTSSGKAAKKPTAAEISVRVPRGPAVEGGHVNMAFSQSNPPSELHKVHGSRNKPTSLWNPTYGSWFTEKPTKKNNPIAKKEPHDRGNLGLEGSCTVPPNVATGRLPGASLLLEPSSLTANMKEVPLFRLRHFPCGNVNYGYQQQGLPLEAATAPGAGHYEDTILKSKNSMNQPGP

Broadly, the Ki is the dissociation constant of the complex between target and ligand, obtained from inhibition or displacement. The low end stands for higher affinity, the high end for lower affinity. For orientation: logD means lipophilicity at a set pH, counting ionised and neutral species. On to `C[C@H]1Oc2cc(cnc2N)-c2c(nn(C)c2C#N)CN(C)C(=O)c2ccccc21`, for which affinity in series [1] was put at a Ki of 4 nM. The compound also returned a logD in series [2] of 2.2.

What is called IC50 is the point on the concentration scale where inhibition reaches its midpoint. Higher therefore signals lower potency. Turning to `O=C(O)COc1cc(Cl)ccc1C(=O)NCc1ccc(Br)cc1`, the IC50 in series [3] was 550 nM.
